For data set [1], the target named is T1, HER2 (Homo sapiens, UniProt P04626).
T1 construct: endogenous in cells; host or cells: SK-BR-3
The experiment in a line: HER2 total protein levels by western blotting (WES system) after tucatinib treatment. In kind it is cell-based. The note with it: BT-474, SK-BR-3, HCC-1419, UACC-893; tucatinib 30 nM or 100 nM; 24 hours and 48 hours. How it is done:
(§1) To assess changes to HER2 protein levels upon treatment with tucatinib, HER2-amplified breast cancer cell lines were analyzed by Western blot and quantitative FACS (qFACS). HER2 protein levels were determined for BT-474, SK-BR-3, HCC-1419, and UACC-893 after treatment with tucatinib at either 30 nM or 100 nM doses, for the duration of 24 hours and 48 hours.
HER2 protein levels were determined for BT-474, SK-BR-3, HCC-1419, and UACC-893 after treatment with tucatinib at either 30 nM or 100 nM doses, for the duration of 24 hours and 48 hours. Protein lysates were generated from cells harvested at each timepoint. HER2 total protein levels were determined by western blotting using a WES™ system, and normalized against GAPDH levels as a loading control. In all four cell lines tested, HER2 total protein levels increased after treatment with tucatinib.
In general terms: In western blotting, separated proteins are transferred to a membrane and probed.

For data set [2], the system named is BT-474 breast cancer cells. The experiment in a line: BT-474 cell line-derived (CDX) subcutaneous xenograft model. In kind it is in vivo, mice. The note with it: BT-474 CDX; tucatinib 50 mg/kg orally twice daily; T-DM1 10 mg/kg IV single dose; nine animals per arm. As to the method:
Cell line-derived (CDX) BT-474 breast cancer cells were implanted subcutaneously into the flanks of female immunocompromised mice. […] Each study arm was comprised of nine animals each. Tumor volume was monitored until the designated endpoint of the study. P-values were determined by t-test analysis comparing the tucatinib/T-DM1 combination to the closest single agent arm (ref brackets). In this model, the combination of tucatinib and T-DM1 produced three complete responses and six partial responses, while tucatinib alone generated eight partial responses, and T-DM1 alone generated nine partial responses.

Data set [3] concerns HER2+ mBC. The experiment in a line: Phase 1b open-label dose-escalation study ONT-380-004 of tucatinib combined with T-DM1. The format is in vivo, human. The note with it: PO BID in combination with T-DM1 3.6 mg/kg every 21 days. How it is done: For subjects in the CNS disease-expansion cohorts, trastuzumab and taxane (together or separately) might have been given at any time prior to study enrollment as part of neoadjuvant therapy, adjuvant therapy, or therapy for metastatic disease.
Fifty-seven T-DM1-naive subjects were treated (Borges 2018). […] In these 50 subjects, the median PFS was 8.2 months (95% CI: 4.8, 10.3); the clinical benefit rate (CBR; subjects with best response of complete response (CR) or partial response [PR], or stable disease [SD] for >6 months) among 48 evaluable subjects was 58% (28 subjects). Thirty-four of 50 subjects (68%) treated with the MTD had measurable disease and were evaluable for response with an objective response rate (ORR) of 47% (1 subject with CR, 15 subjects with PR 14 subjects with SD, and 4 subjects with disease progression). Among the subjects whose disease responded to treatment, the median duration of response (DOR) was 6.9 months (95% CI: 2.8, 19.8).

Data set [4] deals with CTG-0708 model. Kind of data set: T-DM1-resistant HER2+ patient-derived (PDX) breast cancer model CTG-0708. In kind it is in vivo, mice. As to the method: (§2) For these experiments, two T-DM1-resistant breast cancer tumor models were selected which scored 3+ by IHC and had metastasized to the lung. Tumor fragments were implanted subcutaneously into the flanks of immunocompromised mice. […] Each study arm was comprised of eight animals each. Tumor volume was monitored until the designated endpoint of the study. P-values were determined by t-test analysis comparing the tucatinib/T-DM1 combination to the closest single agent arm (ref brackets).

Data set [5] concerns the target P-gp (Homo sapiens, UniProt P08183). The note with it: concomitant use with digoxin; cited from earlier work.
Data set [6] relates to CTG-0807 model. The experiment in a line: T-DM1-resistant HER2+ patient-derived (PDX) breast cancer model CTG-0807. The format is in vivo, mice. How it is done:
as §2

In data set [7] the target is T1, HER2. Kind of data set: Plasma membrane-associated HER2 levels by quantitative FACS (qFACS) after tucatinib treatment. In kind it is cell-based. The note with it: BT-474, SK-BR-3, HCC-1419, UACC-893; tucatinib 30 nM or 100 nM; 24 hours and 48 hours. How it is done:
as §1
Cell surface levels of HER2 were determined for BT-474, SK-BR-3, HCC-1419, and UACC-893 after treatment with tucatinib at either 30 nM or 100 nM doses, for the duration of 24 hours and 48 hours. Plasma membrane-associated levels of HER2 were determined by quantitative FACS (qFACS) analysis after exclusion of dead cells. In all four cell lines tested, HER2 levels at the cell surface increased after treatment with tucatinib.

The target of data set [8] is T1, HER2. Kind of data set: HER2 internalization assays with fluorescently-labeled trastuzumab (AF488, QF) in SK-BR-3 cells. The format is cell-based. The note with it: tucatinib 100 nM. How it is done: To probe the dynamics of HER2 at the cell surface upon binding to antibody therapeutics, HER2 internalization assays were conducted over the course of 72 hours. […] FIGS. 10A and 10B show the dynamics of HER2 at the cell surface upon binding to antibody therapeutics.
To probe the dynamics of HER2 at the cell surface upon binding to antibody therapeutics in the presence or absence of tucatinib (100 nM), SK-BR-3 cells were incubated with fluorescently-labeled trastuzumab to mark HER2 at the cell surface as shown in FIGS. 10A and 10B. Excess antibody was washed out. Cells were imaged at time points spanning 72 hours to observe internalization of surface-bound antibody. Concurrent experiments were conducted with trastuzumab labeled with QF […], a quenched fluor which fluoresces upon lysosomal processing and can serve as a proxy for antibody catabolism.

Setting [9] is: CTG-0708 PDX, tucatinib 50 mg/kg orally twice daily, T-DM1 10 mg/kg IV single dose, eight animals per arm.
[10] abbreviates: CTG-0807 PDX, tucatinib 50 mg/kg orally twice daily, T-DM1 10 mg/kg IV single dose, eight animals per arm.

T1 sequence (P04626 23-1255): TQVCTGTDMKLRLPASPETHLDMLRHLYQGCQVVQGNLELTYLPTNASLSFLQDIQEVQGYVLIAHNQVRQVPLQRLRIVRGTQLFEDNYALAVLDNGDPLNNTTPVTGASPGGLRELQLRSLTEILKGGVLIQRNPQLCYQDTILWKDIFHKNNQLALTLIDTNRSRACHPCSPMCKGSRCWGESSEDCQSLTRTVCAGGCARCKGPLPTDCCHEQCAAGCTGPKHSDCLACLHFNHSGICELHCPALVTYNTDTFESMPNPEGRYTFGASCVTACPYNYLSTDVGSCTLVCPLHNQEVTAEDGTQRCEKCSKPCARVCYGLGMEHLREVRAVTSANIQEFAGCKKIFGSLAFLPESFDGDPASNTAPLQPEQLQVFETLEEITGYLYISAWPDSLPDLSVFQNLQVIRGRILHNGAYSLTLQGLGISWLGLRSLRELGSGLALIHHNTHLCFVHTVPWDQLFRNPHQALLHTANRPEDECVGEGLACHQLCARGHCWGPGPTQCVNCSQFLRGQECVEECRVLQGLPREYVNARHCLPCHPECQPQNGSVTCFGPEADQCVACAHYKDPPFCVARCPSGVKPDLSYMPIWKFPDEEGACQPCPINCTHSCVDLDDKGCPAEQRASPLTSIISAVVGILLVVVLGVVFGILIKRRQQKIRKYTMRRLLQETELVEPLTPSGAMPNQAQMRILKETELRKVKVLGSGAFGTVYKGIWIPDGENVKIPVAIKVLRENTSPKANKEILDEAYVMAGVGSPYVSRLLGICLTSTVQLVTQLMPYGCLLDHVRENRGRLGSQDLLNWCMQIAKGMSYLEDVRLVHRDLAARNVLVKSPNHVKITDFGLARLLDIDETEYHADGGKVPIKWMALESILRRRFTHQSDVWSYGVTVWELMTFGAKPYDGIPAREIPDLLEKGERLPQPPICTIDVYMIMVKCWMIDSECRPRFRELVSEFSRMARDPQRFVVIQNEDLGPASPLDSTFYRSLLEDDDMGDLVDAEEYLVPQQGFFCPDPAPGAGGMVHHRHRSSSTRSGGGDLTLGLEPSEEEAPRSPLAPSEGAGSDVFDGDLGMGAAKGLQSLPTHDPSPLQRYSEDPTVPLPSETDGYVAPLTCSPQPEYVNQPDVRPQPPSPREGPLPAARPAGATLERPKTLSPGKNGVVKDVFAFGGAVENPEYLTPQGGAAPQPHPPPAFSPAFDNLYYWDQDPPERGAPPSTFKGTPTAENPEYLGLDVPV
Sequence of P-gp (P08183 whole entry): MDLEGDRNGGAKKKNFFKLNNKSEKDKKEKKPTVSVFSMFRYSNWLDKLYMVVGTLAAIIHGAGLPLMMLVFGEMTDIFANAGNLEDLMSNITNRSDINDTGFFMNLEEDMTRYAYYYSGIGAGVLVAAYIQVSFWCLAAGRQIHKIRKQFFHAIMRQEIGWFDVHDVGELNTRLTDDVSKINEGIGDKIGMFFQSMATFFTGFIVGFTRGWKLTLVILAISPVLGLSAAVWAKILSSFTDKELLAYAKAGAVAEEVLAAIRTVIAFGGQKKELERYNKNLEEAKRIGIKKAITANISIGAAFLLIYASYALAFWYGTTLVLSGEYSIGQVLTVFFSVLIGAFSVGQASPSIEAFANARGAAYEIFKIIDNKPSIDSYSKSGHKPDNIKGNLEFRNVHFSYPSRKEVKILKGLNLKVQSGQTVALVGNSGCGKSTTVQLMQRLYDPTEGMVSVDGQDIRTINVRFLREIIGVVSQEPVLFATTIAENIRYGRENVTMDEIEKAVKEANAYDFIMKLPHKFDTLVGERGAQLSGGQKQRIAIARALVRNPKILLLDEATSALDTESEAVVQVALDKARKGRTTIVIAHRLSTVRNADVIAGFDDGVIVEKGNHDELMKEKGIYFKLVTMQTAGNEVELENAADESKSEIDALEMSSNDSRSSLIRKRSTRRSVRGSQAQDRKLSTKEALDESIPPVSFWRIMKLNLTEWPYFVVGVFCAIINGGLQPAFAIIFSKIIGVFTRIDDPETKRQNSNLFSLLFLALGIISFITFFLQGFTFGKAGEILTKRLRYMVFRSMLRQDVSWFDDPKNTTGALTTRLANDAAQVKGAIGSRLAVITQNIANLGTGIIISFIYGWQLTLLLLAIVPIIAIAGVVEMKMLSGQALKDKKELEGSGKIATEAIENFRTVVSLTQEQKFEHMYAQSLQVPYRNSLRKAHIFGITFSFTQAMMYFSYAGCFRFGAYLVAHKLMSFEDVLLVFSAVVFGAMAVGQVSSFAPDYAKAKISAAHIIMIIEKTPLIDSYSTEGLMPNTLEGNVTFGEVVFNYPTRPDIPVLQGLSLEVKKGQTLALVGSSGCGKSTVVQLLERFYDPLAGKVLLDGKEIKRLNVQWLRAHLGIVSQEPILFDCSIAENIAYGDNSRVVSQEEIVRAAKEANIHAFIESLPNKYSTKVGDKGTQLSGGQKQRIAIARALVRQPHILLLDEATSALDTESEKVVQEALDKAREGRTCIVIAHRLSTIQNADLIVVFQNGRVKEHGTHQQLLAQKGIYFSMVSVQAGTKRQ

As to `Cc1cc(Nc2ncnc3ccc(NC4=NC(C)(C)CO4)cc23)ccc1Oc1ccn2ncnc2c1` [tucatinib], the “HER2 total protein levels (normalized against GAPDH)” value in data set [1] is “increased”. In addition, the partial responses result in data set [2] is listed as “eight”; in data set [4] (setting [9]), “two”; in data set [6] (setting [10]) it was 6. For the same compound, in data set [3], the “maximum-tolerated dose (MTD) of tucatinib” value came out at 300 mg. The “tumor growth / tumor control” value in data set [4] (T-DM1 resistant PDX model CTG-0708) and in data set [6] (T-DM1 resistant PDX model CTG-0807) was “inhibited tumor growth” in each case. For the same compound, the “effect on digoxin concentrations (drug interaction)” value in data set [5] is given as “increases digoxin concentrations”. Further, in data set [7], the “HER2 levels at the cell surface” value is listed as “increased”. Further, the “dwell time of HER2 at the cell surface” value in data set [8] (initial effect) was “increased the dwell time of HER2 at the cell surface”. The “internalization and lysosomal processing of HER2 bound to trastuzumab” value in data set [8] (later timepoints, up to 72 hours) was “HER2 bound to trastuzumab was internalized and directed towards lysosomes”.

On to “ado-trastuzumab emtansine [T-DM1, reference compound]”, for which the partial responses result in data set [2] is “nine”; in data set [4] (setting [9]) it was “no partial or complete responses”; in data set [6] (setting [10]) it was “no partial or complete responses”. In addition, the complete responses result in data set [4] (setting [9]) and in data set [6] (setting [10]) was “no partial or complete responses” each time.

Values taken from patent publication US20220387618A1, “METHODS OF TREATING HER2 POSITIVE BREAST CANCER WITH TUCATINIB IN COMBINATION WITH AN ANTI-HER2 ANTIBODY-DRUG CONJUGATE” (Seagen Inc., priority 2019, published 2022).
